According to US20260226067A1, “MODULATORS OF TRPML, THEIR COMPOSITIONS AND METHODS OF USE” (Caraway Therapuetics, Inc., priority 2023, published 2026):
Values belong to the compound of their own block, whether it stands above or below them.

Columns and labels:
Assay type in all cases: cell-based
human TRPML1 = human TRPML1 (Homo sapiens, UniProt Q9GZU1); assay: Fluorescent TRPML1 assay (Fluo4-AM calcium fluorescence); details: HEK-293 Trex cells expressing hTRPML1, Fluo4-AM fluorescence; read-out: Human TRPML 1 EC50
human TRPML1, sequence (Q9GZU1 whole entry L15A/L16A/L577A/L578A, form open): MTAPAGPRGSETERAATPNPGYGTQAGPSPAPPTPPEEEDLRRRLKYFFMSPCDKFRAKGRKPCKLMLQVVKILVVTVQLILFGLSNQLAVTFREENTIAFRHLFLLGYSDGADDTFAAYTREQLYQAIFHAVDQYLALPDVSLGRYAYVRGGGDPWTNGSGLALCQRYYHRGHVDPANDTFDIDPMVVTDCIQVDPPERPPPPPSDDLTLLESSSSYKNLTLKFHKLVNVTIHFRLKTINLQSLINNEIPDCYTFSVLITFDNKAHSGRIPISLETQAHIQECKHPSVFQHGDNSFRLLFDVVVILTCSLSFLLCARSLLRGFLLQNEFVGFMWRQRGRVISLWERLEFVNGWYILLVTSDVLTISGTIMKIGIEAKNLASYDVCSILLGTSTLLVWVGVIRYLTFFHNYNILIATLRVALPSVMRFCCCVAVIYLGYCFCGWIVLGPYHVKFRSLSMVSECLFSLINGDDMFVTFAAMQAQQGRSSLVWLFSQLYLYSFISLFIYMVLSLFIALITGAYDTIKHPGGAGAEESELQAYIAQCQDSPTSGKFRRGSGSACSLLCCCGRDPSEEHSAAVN
Method: (§1) HEK-293 Trex cells were stably transfected with a construct consisting of the human coding sequence for TRPML1 cloned into the tet-inducible plasmid pCDNA5 T/O. Mutations were introduced into the TRPML1 sequence to facilitate expression on the cell surface (Silvia Vergarajauregui, Rosa Puertollano Traffic. 2006 March; 7(3): 337-353). Briefly, the cells are cultured in 150 mm round tissue culture dishes containing 20 mL of media. The day before the assay the cells are rinsed with DPBS-Ca-Mg and then treated briefly with Trypsin-EDTA. The Trypsin-EDTA is diluted with growth media, and cells are counted. 38×10^6 cells are re-plated into 150 mm round tissue culture dishes in media containing 0.5 ug/mL doxycycline to induce expression of hTRPML1.
(§2) The day of the experiment cells are lifted from the plates as above and collected by centrifugation. The cells are then suspended in dye loading buffer consisting of Ringer's solution supplemented with 0.1% Pluronic Acid and 1 micromolar Fluo4-AM dye. Cells are loaded for ~60 minutes in the dark with occasional mixing. The cells are collected by centrifugation, the loading media aspirated, and the cells resuspended in 25 mL Ringer's solution and incubated ~60 minutes in the dark. The cells are again collected by centrifugation, rinsed in Ringer's Solution and resuspended to 0.2×10^6 cells/mL in modified Ringer's solution containing 10 mM calcium.
(§3) Compounds are dissolved to a concentration of 10 millimolar with DMSO. Compound plates are created by dispensing compounds into 384 well black wall clear bottom plates (Greiner 781091). Positive and negative controls are included on each plate. Typically, different amounts of each compound are tested ranging from 100 nanoMoles (20 micromolar final concentration) decreasing in half-log steps to 31 picoMoles (6 nanomolar final concentration). Each concentration is typically tested in triplicate.
(§4) 50 microliters of dye-loaded cells are dispensed into each well of the compound assay plate created above. The fluorescence in each well is then determined with an excitation wavelength of 480 nm and an emission wavelength of 540 nm using either a Molecular Devices SpectraMax multimode plate reader or a Hamamatsu FDSS/uCell plate imager.
(§5) The resulting fluorescence for each well is exported as an ascii file and loaded into our LIMS for analysis. The percent activity of each compound at each concentration is determined by comparison to the positive and negative control wells included in each plate.
(§6) EC50 values were calculated using a non-linear regression of Prism. In the table, “A” indicates an EC50 of less than 100 nM, “B” indicates an EC50 range from 100 nM to 500 nM; “C” indicates an EC50 range from 500 nM to 2 μM; and “D” indicates an EC50 greater than 2 μM.

Human TRPML2 = molecular target: T1, Human TRPML2 (Homo sapiens, UniProt Q8IZK6); assay: Fluorescent TRPML2 assay (as for TRPML1); details: as TRPML1 assay with TRPML2 subtype; read-out: Human TRPML 2 EC50
T1 construct: expressed in transfected cells
T1 sequence (Q8IZK6 1-566): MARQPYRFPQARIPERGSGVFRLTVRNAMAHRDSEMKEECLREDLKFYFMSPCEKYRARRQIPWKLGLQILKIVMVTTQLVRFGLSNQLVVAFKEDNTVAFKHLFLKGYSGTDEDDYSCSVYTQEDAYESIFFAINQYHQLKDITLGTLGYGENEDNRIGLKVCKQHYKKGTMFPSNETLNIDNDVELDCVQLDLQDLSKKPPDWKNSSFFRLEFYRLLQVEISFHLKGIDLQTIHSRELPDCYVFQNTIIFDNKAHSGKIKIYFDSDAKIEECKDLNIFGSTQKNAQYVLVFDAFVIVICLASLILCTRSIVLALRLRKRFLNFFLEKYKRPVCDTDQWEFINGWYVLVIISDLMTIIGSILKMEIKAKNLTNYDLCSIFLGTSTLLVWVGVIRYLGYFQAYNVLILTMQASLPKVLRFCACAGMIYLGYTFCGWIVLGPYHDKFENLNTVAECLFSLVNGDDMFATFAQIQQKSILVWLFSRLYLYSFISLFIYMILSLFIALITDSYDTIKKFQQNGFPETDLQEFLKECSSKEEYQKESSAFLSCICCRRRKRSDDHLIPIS
Method: as §1, §2, §3, §4, §5
(§7) Assays for TRPML2 and TRPML3 were performed as above for TRPML1, by substituting the appropriate TRPML2 or TRPML3 subtype for the TRPML1.
as §6

Human TRPML3 = molecular target: T2, Human TRPML3 (Homo sapiens, UniProt Q8TDD5); assay: Fluorescent TRPML3 assay (as for TRPML1); details: as TRPML1 assay with TRPML3 subtype; read-out: Human TRPML 3 EC50
T2 construct: expressed in transfected cells
T2 sequence (Q8TDD5 1-553): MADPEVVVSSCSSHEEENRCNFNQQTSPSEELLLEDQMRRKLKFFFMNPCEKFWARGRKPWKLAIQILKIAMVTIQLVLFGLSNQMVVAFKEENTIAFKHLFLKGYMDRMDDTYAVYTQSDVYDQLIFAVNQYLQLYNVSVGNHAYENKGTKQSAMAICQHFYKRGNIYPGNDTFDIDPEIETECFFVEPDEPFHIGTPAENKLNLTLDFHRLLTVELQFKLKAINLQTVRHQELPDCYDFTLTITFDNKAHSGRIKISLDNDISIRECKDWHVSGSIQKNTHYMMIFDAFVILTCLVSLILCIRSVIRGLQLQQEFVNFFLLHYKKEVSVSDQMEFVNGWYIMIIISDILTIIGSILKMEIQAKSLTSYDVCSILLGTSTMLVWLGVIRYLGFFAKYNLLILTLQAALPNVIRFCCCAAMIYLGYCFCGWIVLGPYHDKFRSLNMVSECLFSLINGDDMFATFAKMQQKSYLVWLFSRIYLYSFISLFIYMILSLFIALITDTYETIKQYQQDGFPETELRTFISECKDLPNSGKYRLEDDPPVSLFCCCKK
Method: as §1, §2, §3, §4, §5, §7, §6

SMILES: C[C@@H]1CN(c2ncnc3c2c(C2CC2)cn3-c2cccc(F)c2)[C@@H](C)CN1C(=O)c1ccccc1 [Compound 105, ((2R,5S)-4-(5-cyclopropyl-7-(3-fluorophenyl)-7H-pyrrolo[2,3-d]pyrimidin-4-yl)-2,5-dimethylpiperazin-1-yl)(phenyl)methanone]
EC50 (human TRPML1): < 100 nM
EC50 (Human TRPML2): > 2000 nM
EC50 (Human TRPML3): 500 to 2000 nM

SMILES: C[C@@H]1CN(c2ncnc3c2c(C(F)(F)F)cn3-c2cccc(F)c2)[C@@H](C)CN1C(=O)c1ccccc1 [Compound 106, ((2R,5S)-4-(7-(3-fluorophenyl)-5-(trifluoromethyl)-7H-pyrrolo[2,3-d]pyrimidin-4-yl)-2,5-dimethylpiperazin-1-yl)(phenyl)methanone]
EC50 (human TRPML1): < 100 nM
EC50 (Human TRPML2): > 2000 nM
EC50 (Human TRPML3): 500 to 2000 nM

SMILES: C[C@@H]1CN(c2ncnc3c2c(N2CCC2)cn3-c2cccc(F)c2)[C@@H](C)CN1C(=O)c1ccccc1 [Compound 108, ((2R,5S)-4-(5-(azetidin-1-yl)-7-(3-fluorophenyl)-7H-pyrrolo[2,3-d]pyrimidin-4-yl)-2,5-dimethylpiperazin-1-yl)(phenyl)methanone]
EC50 (human TRPML1): < 100 nM
EC50 (Human TRPML2): 500 to 2000 nM
EC50 (Human TRPML3): 500 to 2000 nM

SMILES: C[C@@H]1CN(c2ncnc3c2c(C2CCC2)cn3-c2cc(C#N)ccn2)[C@@H](C)CN1C(=O)c1ccccc1 [Compound 110, 2-(4-((2S,5R)-4-benzoyl-2,5-dimethylpiperazin-1-yl)-5-cyclobutyl-7H-pyrrolo[2,3-d]pyrimidin-7-yl)isonicotinonitrile]
EC50 (human TRPML1): < 100 nM
EC50 (Human TRPML2): 100 to 500 nM
EC50 (Human TRPML3): 100 to 500 nM

SMILES: C[C@@H]1CN(c2ncnc3c2c(C2CCC2)cn3-c2cccc(F)c2)[C@@H](C)CN1C(=O)c1ccccc1 [Compound 111, ((2R,5S)-4-(5-cyclobutyl-7-(3-fluorophenyl)-7H-pyrrolo[2,3-d]pyrimidin-4-yl)-2,5-dimethylpiperazin-1-yl)(phenyl)methanone]
EC50 (human TRPML1): 100 to 500 nM
EC50 (Human TRPML3): 500 to 2000 nM

SMILES: Cc1ccccc1C(=O)N1C[C@H](C)N(c2ncnc3c2c(N2CCC2)cn3-c2cc(C#N)ccn2)C[C@H]1C [Compound 112, 2-(5-(azetidin-1-yl)-4-((2S,5R)-2,5-dimethyl-4-(2-methylbenzoyl)piperazin-1-yl)-7H-pyrrolo[2,3-d]pyrimidin-7-yl)isonicotinonitrile]
EC50 (human TRPML1): 100 to 500 nM
EC50 (Human TRPML2): 500 to 2000 nM
EC50 (Human TRPML3): 100 to 500 nM

SMILES: C[C@@H]1CN(c2ncnc3c2c(N2CCC2)cn3-c2cc(C#N)ccn2)[C@@H](C)CN1C(=O)c1ccccc1F [Compound 113, 2-(5-(azetidin-1-yl)-4-((2S,5R)-4-(2-fluorobenzoyl)-2,5-dimethylpiperazin-1-yl)-7H-pyrrolo[2,3-d]pyrimidin-7-yl)isonicotinonitrile]
EC50 (human TRPML1): 100 to 500 nM
EC50 (Human TRPML2): 100 to 500 nM
EC50 (Human TRPML3): 500 to 2000 nM

SMILES: C[C@@H]1CN(c2ncnc3c2c(N2CCC2)cn3-c2cc(C#N)ccn2)[C@@H](C)CN1C(=O)c1cccc(F)c1 [Compound 114, 2-(5-(azetidin-1-yl)-4-((2S,5R)-4-(3-fluorobenzoyl)-2,5-dimethylpiperazin-1-yl)-7H-pyrrolo[2,3-d]pyrimidin-7-yl)isonicotinonitrile]
EC50 (human TRPML1): 100 to 500 nM
EC50 (Human TRPML2): 100 to 500 nM
EC50 (Human TRPML3): 100 to 500 nM

SMILES: C[C@H]1CN(C(=O)c2ccccc2)CCN1c1ncnc2c1c(C(F)(F)F)cn2-c1cc(C#N)ccn1 [Compound 117, (S)-2-(4-(4-benzoyl-2-methylpiperazin-1-yl)-5-(trifluoromethyl)-7H-pyrrolo[2,3-d]pyrimidin-7-yl)isonicotinonitrile]
EC50 (Human TRPML3): 500 to 2000 nM

SMILES: C[C@@H]1CN(c2ncnc3c2c(-c2ccccn2)cn3-c2cc(C#N)ccn2)[C@@H](C)CN1C(=O)c1ccccc1 [Compound 118, 2-(4-((2S,5R)-4-benzoyl-2,5-dimethylpiperazin-1-yl)-5-(pyridin-2-yl)-7H-pyrrolo[2,3-d]pyrimidin-7-yl)isonicotinonitrile]
EC50 (human TRPML1): 100 to 500 nM
EC50 (Human TRPML3): 500 to 2000 nM

Next, values leading:

EC50 (human TRPML1): < 100 nM
EC50 (Human TRPML2): 100 to 500 nM
EC50 (Human TRPML3): < 100 nM
SMILES: C[C@@H]1CN(c2ncnc3c2c(N2CCC2)cn3-c2cc(C#N)ccn2)CCN1C(=O)c1ccccc1 [Compound 101, (R)-2-(5-(azetidin-1-yl)-4-(4-benzoyl-3-methylpiperazin-1-yl)-7H-pyrrolo[2,3-d]pyrimidin-7-yl)isonicotinonitrile]

EC50 (human TRPML1): < 100 nM
EC50 (Human TRPML2): > 2000 nM
EC50 (Human TRPML3): 100 to 500 nM
SMILES: C[C@@H]1CN(c2ncnc3c2c(C2CC2)cn3-c2cc(C#N)ccn2)[C@@H](C)CN1C(=O)c1ccccc1 [Compound 102, 2-(4-((2S,5R)-4-benzoyl-2,5-dimethylpiperazin-1-yl)-5-cyclopropyl-7H-pyrrolo[2,3-d]pyrimidin-7-yl)isonicotinonitrile]

EC50 (Human TRPML2): 500 to 2000 nM
EC50 (Human TRPML3): < 100 nM
SMILES: C[C@@H]1CN(c2ncnc3c2c(C(F)(F)F)cn3-c2cc(C#N)ccn2)[C@@H](C)CN1C(=O)c1ccccc1 [Compound 103, 2-(4-((2S,5R)-4-benzoyl-2,5-dimethylpiperazin-1-yl)-5-(trifluoromethyl)-7H-pyrrolo[2,3-d]pyrimidin-7-yl)isonicotinonitrile]

EC50 (Human TRPML3): 100 to 500 nM
SMILES: Cc1cn(-c2cc(C#N)ccn2)c2ncnc(N3C[C@@H](C)N(C(=O)c4ccccc4)C[C@@H]3C)c12 [Compound 104, 2-(4-((2S,5R)-4-benzoyl-2,5-dimethylpiperazin-1-yl)-5-methyl-7H-pyrrolo[2,3-d]pyrimidin-7-yl)isonicotinonitrile]

EC50 (human TRPML1): < 100 nM
EC50 (Human TRPML2): 100 to 500 nM
EC50 (Human TRPML3): 100 to 500 nM
SMILES: C[C@@H]1CN(c2ncnc3c2c(N2CCC2)cn3-c2cc(C#N)ccn2)[C@@H](C)CN1C(=O)c1ccccc1 [Compound 107, 2-(5-(azetidin-1-yl)-4-((2S,5R)-4-benzoyl-2,5-dimethylpiperazin-1-yl)-7H-pyrrolo[2,3-d]pyrimidin-7-yl)isonicotinonitrile]

EC50 (human TRPML1): < 100 nM
EC50 (Human TRPML2): 100 to 500 nM
EC50 (Human TRPML3): < 100 nM
SMILES: C[C@@H]1CN(c2ncnc3c2c(-c2ccccc2F)cn3-c2cc(C#N)ccn2)[C@@H](C)CN1C(=O)c1ccccc1 [Compound 109, 2-(4-((2S,5R)-4-benzoyl-2,5-dimethylpiperazin-1-yl)-5-(2-fluorophenyl)-7H-pyrrolo[2,3-d]pyrimidin-7-yl)isonicotinonitrile]

EC50 (Human TRPML3): < 100 nM
SMILES: C[C@@H]1CN(c2ncnc3c2c(C(F)(F)F)cn3-c2cc(C#N)ccn2)CCN1C(=O)c1ccccc1 [Compound 115, (R)-2-(4-(4-benzoyl-3-methylpiperazin-1-yl)-5-(trifluoromethyl)-7H-pyrrolo[2,3-d]pyrimidin-7-yl)isonicotinonitrile]
